# In patent US7732481B2, “Prolinylarylacetamides” (Merck Patent Gesellschaft mit beschrankter Haftung, priority 2003, dated 2010):
# Columns and labels:
# [1] = target: FXa (Homo sapiens, UniProt P00742); experiment: Inhibition of factor Xa (FXa-IC50); type: biochemical
# Description: The inhibition of factor Xa by the compounds according to the invention and the measurement of the anticoagulant and antithrombotic activity can be determined by conventional in-vitro or in-vivo methods. A suitable method is described, for example, by J. Hauptmann et al. in Thrombosis and Haemostasis 1990, 63, 220-223.
# The inhibition of factor Xa can be measured, for example by the method of T. Hara et al. in Thromb. Haemostas. 1994, 71, 314-319.
# Sequence of FXa (P00742 235-488 limits assumed): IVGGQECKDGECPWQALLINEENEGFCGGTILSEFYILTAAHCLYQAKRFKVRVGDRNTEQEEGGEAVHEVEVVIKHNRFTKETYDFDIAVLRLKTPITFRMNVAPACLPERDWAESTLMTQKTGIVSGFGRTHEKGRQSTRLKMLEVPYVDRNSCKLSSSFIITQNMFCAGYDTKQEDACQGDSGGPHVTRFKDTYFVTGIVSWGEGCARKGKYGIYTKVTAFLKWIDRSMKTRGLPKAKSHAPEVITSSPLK
# Sequence of FXa (P00742 41-179 limits assumed): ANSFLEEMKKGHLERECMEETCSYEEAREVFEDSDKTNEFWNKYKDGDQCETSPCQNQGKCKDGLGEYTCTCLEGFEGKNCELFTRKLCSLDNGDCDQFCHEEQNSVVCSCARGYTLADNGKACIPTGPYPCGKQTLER
Structure (SMILES),melting point [°C],IC50 [1] [nM]
"COCC(=O)N(C)c1ccc(NC(=O)[C@H]2C[C@@H](O)CN2C(=O)Nc2ccc(Cl)cc2)cc1 [Compound A4, 1-N-(4-Chlorophenyl)-2-N-{4-[(2-methoxyethanoyl)methylamino]phenyl}-(2R,4R)-4-hydroxypyrrolidine-1,2-dicarboxamide]",84,
"CN(C(=O)CN1CCC(O)CC1)c1ccc(NC(=O)[C@H]2C[C@@H](O)CN2C(=O)Nc2ccc(Cl)cc2)cc1 [Compound A1-2, 1-N-(4-chlorophenyl)-2-N-{4-[(2-(4-hydroxypiperidin-1-yl)ethanoyl)-methylamino]phenyl}-(2R,4R)-4-hydroxypyrrolidine-1,2-dicarboxamide]",,37
"CN(C(=O)CN1CCOCC1)c1ccc(NC(=O)[C@H]2C[C@@H](O)CN2C(=O)Nc2ccc(Cl)cc2)cc1 [Compound A1-1, 1-N-(4-chlorophenyl)-2-N-{4-[(2-(morpholin-4-yl)ethanoyl)methylamino]phenyl}-(2R,4R)-4-hydroxypyrrolidine-1,2-dicarboxamide]",,54
"CN(C)CC(=O)N(C)c1ccc(NC(=O)[C@H]2C[C@@H](O)CN2C(=O)Nc2ccc(Cl)cc2)cc1 [Compound A1, 1-N-(4-Chlorophenyl)-2-N-{4-[(2-dimethylaminoethanoyl)methylamino]-phenyl}-(2R,4R)-4-hydroxypyrrolidine-1,2-dicarboxamide]",95,
"CCNCC(=O)N(C)c1ccc(NC(=O)[C@H]2C[C@@H](O)CN2C(=O)Nc2ccc(Cl)cc2)cc1 [Compound A3, 1-N-(4-Chlorophenyl)-2-N-{4-[(2-ethylaminoethanoyl)methylamino]-phenyl}-(2R,4R)-4-hydroxypyrrolidine-1,2-dicarboxamide]",121,17
